# Patent publication US6730064B2, “Coated implantable medical device” (Cook Incorporated, priority 1998, dated 2004)
# What was measured:
# [1] = test system: porcine coronary in-stent restenosis model; assay: Slow-release paclitaxel coated GR II stents versus control; format: in vivo; conditions: 175-200 μg total drug
# Source text: Furthermore, the coating itself appears biocompatible.
# [2] = test system: in-stent restenosis; assay: Fast-release low-dose and high-dose paclitaxel-coated stents versus control; format: in vivo, porcine
# [3] = test system: stented coronary arteries (in-stent restenosis); assay: One-month pig studies, quantitative coronary angiography (QCA); format: in vivo, Juvenile domestic swine; conditions: 1 month
# Protocol: (§1) No other antiplatelet agents or anticoagulants were given.
# (§2) Angiograms were recorded immediately before stent implantation, immediately after stent implantation and at 1 month follow-up. Immediately after the follow-up angiography, the hearts were excised and the coronary vasculature was perfusion fixed at physiologic pressure. The vessels were then processed to obtain histologic cross sections for morphometric analysis from proximal, middle and distal locations within each stent.
# (§3) Computer assisted quantitative coronary angiography (QCA) analysis and histomorphometric analysis were performed on each stented artery. Qualitative histopathologic analysis was also performed, with each artery evaluated for both injury and inflammation.
# [4] = test system: stented coronary arteries (in-stent restenosis); assay: One-month pig studies, histomorphometric analysis; format: in vivo, Juvenile domestic swine; conditions: 1-month F/U
# Protocol: as §1, §2, §3
# [5] = test system: stented coronary arteries; assay: One-month pig studies, qualitative histopathologic analysis; format: in vivo, Juvenile domestic swine
# Protocol: as §1, §2, §3
# [6] = test system: pigs with stented coronary arteries; conditions: in vivo
# Source text: (§4) Juvenile domestic swine received one stent in the left anterior descending coronary artery (LAD) and/or one stent in the left circumflex (LCX) or right coronary arteries (RCA). To account for differences in vessel diameter prior to stenting, the deployment pressure for each stent was adjusted to achieve a balloon-to-artery ratio (BAR) of approximately 1.1-1.2. The pigs were followed for 1 month after stent implantation.
# (§5) The pigs were fed a standard high fiber diet without lipid or cholesterol supplementation. For antiplatelet effect, each pig was administered approximately 325 mg aspirin and 250 mg ticlopidine daily, starting at least 2 days prior to surgery and continuing until the end of the study. Each pig was also administered approximately 10,000 units heparin during stent implantation and approximately 10,000 units heparin during follow-up angiography. No other antiplatelet agents or anticoagulants were given.
# [7] = test system: pigs with stented coronary arteries; assay: One-month pig studies, premature deaths and safety
# Source text: as §4, §5
# [8] = In-vitro flow system (10 ml/min, 1% BSA in PBS): antibody remaining on stent; format: physicochemical; conditions: after approximately 10 days perfusion
# Source text: In still another aspect of the present invention as depicted in FIG. 11, coating layer 16 can be considered an adsorbent layer and/or an absorbent layer in which a bioactive material is attached thereto. In one particular example, device 10 is a stainless steel GR II™ stent in which the stainless steel base material 14 of structure 12 is coated with a polymer and, in particular, parylene. This adsorbent polymer layer 16 of parylene is approximately 230,000 Å thick. Bioactive material layer 18 of the antiplatelet GP IIb/IIIa antibody (AZ1) was passively loaded on adsorbent polymer layer 16. The polymer coated stainless steel stents were immersed for approximately 24 hours in a buffered aqueous solution of AZ1 antibody (1 mg/ml, pH=7.2) at 37° C. AZ1 is a monoclonal anti-rabbit platelet glycoprotein (GP) IIb/IIIa antibody.
# In another example, c7E3 Fab as bioactive material layer 18 is attached to polymer coating layer 16. Bioactive material c7E3 Fab is a chimeric monoclonal antibody that acts upon the […] integrin on platelets to inhibit their aggregation. This antibody or receptor blocker can be used in humans intravenously to prevent thrombosis during coronary angioplasty. This receptor blocker is also known as ReoPro™ available from Eli Lilly, Indianapolis, Ind. […]
# [9] = 400 μg paclitaxel+parylene N stents
molecule,measurement,setting,value
"CC(=O)O[C@H]1C(=O)[C@@]2(C)[C@H]([C@H](OC(=O)c3ccccc3)[C@]3(O)C[C@H](OC(=O)[C@H](O)[C@@H](NC(=O)c4ccccc4)c4ccccc4)C(C)=C1C3(C)C)[C@]1(OC(C)=O)CO[C@@H]1C[C@@H]2O [Paclitaxel, paclitaxel]",in-stent restenosis compared with controls,[1],significantly reduced
same,Area Stenosis,[2]; Low-Dose,19.3 ± 9.45 %
same,in-stent restenosis compared to control stents,[2]; high-dose,significantly reduced
same,in-stent restenosis compared to control stents,[2]; low-dose,significantly reduced
same,Late Loss,[3]; 5 μg paclitaxel on stent,17.9 ± 20.3%
same,MLD at F/U,[3]; 5 μg paclitaxel on stent,1.74 ± 0.45 mm
same,Mean Diameter at Follow-up,[3]; 5 μg paclitaxel on stent,2.23 ± 0.51 mm
same,Late Loss,[3]; 15 μg paclitaxel on stent,20.1 ± 19.9%
same,MLD at F/U,[3]; 15 μg paclitaxel on stent,1.90 ± 0.38 mm
same,Mean Diameter at Follow-up,[3]; 15 μg paclitaxel on stent,2.15 ± 0.43 mm
same,Late Loss,[3]; 35 μg paclitaxel on stent,2.6 ± 7.5%
same,MLD at F/U,[3]; 35 μg paclitaxel on stent,2.42 ± 0.25 mm
same,Mean Diameter at Follow-up,[3]; 35 μg paclitaxel on stent,2.62 ± 0.21 mm
same,Late Loss,[3]; 85 μg paclitaxel on stent,1.6 ± 8.1%
same,MLD at F/U,[3]; 85 μg paclitaxel on stent,2.61 ± 0.15 mm
same,Mean Diameter at Follow-up,[3]; 85 μg paclitaxel on stent,2.77 ± 0.22 mm
same,Late Loss,[3]; 400 μg paclitaxel + parylene N,0.32 ± 7.1%
same,MLD at F/U,[3]; 400 μg paclitaxel + parylene N,2.75 ± 0.17 mm
same,Mean Diameter at Follow-up,[3]; 400 μg paclitaxel + parylene N,2.92 ± 0.22 mm
same,Lumen Diameter,[4]; 5 μg paclitaxel on stent,1.77 ± 0.34 mm
same,Neointimal Thickness,[4]; 5 μg paclitaxel on stent,0.31 ± 0.20 mm
same,Outer Diameter,[4]; 5 μg paclitaxel on stent,2.73 ± 0.28 mm
same,Wall Thickness,[4]; 5 μg paclitaxel on stent,0.48 ± 0.23 mm
same,Lumen Diameter,[4]; 15 μg paclitaxel on stent,1.87 ± 0.37 mm
same,Neointimal Thickness,[4]; 15 μg paclitaxel on stent,0.29 ± 0.19 mm
same,Outer Diameter,[4]; 15 μg paclitaxel on stent,2.41 ± 0.90 mm
same,Wall Thickness,[4]; 15 μg paclitaxel on stent,0.46 ± 0.22 mm
same,Lumen Diameter,[4]; 35 μg paclitaxel on stent,2.12 ± 0.52 mm
same,Neointimal Thickness,[4]; 35 μg paclitaxel on stent,0.19 ± 0.16 mm
same,Outer Diameter,[4]; 35 μg paclitaxel on stent,2.78 ± 0.32 mm
same,Wall Thickness,[4]; 35 μg paclitaxel on stent,0.33 ± 0.17 mm
same,Lumen Diameter,[4]; 85 μg paclitaxel on stent,2.40 ± 0.31 mm
same,Neointimal Thickness,[4]; 85 μg paclitaxel on stent,0.15 ± 0.08 mm
same,Outer Diameter,[4]; 85 μg paclitaxel on stent,2.96 ± 0.31 mm
same,Wall Thickness,[4]; 85 μg paclitaxel on stent,0.28 ± 0.10 mm
same,Lumen Diameter,[4]; 400 μg paclitaxel + parylene N,2.58 ± 0.19 mm
same,Neointimal Thickness,[4]; 400 μg paclitaxel + parylene N,0.12 ± 0.06 mm
same,Outer Diameter,[4]; 400 μg paclitaxel + parylene N,3.06 ± 0.17 mm
same,Wall Thickness,[4]; 400 μg paclitaxel + parylene N,0.24 ± 0.07 mm
same,histologic sections with occasional small patches of luminal fibrin,[5]; 5 μg paclitaxel stents,none
same,histologic sections with vessel wall hypocellularity and hyalinization,[5]; 5 μg paclitaxel stents,approximately 28%
same,histologic sections with occasional small patches of luminal fibrin,[5]; 15 μg paclitaxel stents,none
same,histologic sections with vessel wall hypocellularity and hyalinization,[5]; 15 μg paclitaxel stents,approximately 67%
same,histologic sections with occasional small patches of luminal fibrin,[5]; 35 μg paclitaxel stents,approximately 50%
same,histologic sections with vessel wall hypocellularity and hyalinization,[5]; 35 μg paclitaxel stents,over 80%
same,histologic sections with occasional small patches of luminal fibrin,[5]; 85 μg paclitaxel stents,approximately 50%
same,histologic sections with vessel wall hypocellularity and hyalinization,[5]; 85 μg paclitaxel stents,over 80%
same,histologic sections with occasional small patches of luminal fibrin,[5]; [9],approximately 50%
same,histologic sections with vessel wall hypocellularity and hyalinization,[5]; [9],over 80%
same,safety problems related to the stents,[6],no safety problems
same,Premature Deaths,[7]; 5 μg paclitaxel on stent,One pig (stents in LAD &
same,Premature Deaths,"[7]; 5 μg paclitaxel on stent, listed as paclitaxel",One pig
same,Premature Deaths,[7]; 15 μg paclitaxel on stent,One pig (stents in LAD &
same,Premature Deaths,"[7]; 15 μg paclitaxel on stent, listed as paclitaxel",One pig
same,Premature Deaths,[7]; 35 μg paclitaxel on stent,None
same,Premature Deaths,[7]; 85 μg paclitaxel on stent,None
same,Premature Deaths,[7]; 400 μg paclitaxel + parylene N,None
c7E3 Fab: chimeric monoclonal antibody acting on platelet GP IIb/IIIa integrin to inhibit aggregation,loaded antibody remaining on the stent,[8],approximately half
